How the values were obtained:
[1] = target: T1, Peroxisome proliferator-activated receptor gamma (Homo sapiens, UniProt P37231); type: functional
T1 sequence (P37231 whole entry): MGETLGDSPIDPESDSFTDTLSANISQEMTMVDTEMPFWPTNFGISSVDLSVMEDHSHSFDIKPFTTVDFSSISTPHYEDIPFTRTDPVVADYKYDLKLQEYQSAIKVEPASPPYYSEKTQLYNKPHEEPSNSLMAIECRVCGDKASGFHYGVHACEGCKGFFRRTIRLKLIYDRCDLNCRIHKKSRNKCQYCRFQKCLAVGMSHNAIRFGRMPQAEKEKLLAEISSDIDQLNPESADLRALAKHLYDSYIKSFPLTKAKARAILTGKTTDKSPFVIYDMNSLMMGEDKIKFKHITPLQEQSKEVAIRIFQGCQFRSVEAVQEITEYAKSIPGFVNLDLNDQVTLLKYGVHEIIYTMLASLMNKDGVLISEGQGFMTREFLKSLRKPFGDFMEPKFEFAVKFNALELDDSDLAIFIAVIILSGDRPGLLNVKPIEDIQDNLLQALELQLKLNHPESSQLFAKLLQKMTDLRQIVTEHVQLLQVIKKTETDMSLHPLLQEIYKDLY

[2] = target: Receptor tyrosine-protein kinase erbB-2 (Homo sapiens, UniProt P04626); type: functional
Glucagon receptor = Glucagon receptor (Homo sapiens, UniProt P47871)
Sequence of Glucagon receptor (P47871 whole entry): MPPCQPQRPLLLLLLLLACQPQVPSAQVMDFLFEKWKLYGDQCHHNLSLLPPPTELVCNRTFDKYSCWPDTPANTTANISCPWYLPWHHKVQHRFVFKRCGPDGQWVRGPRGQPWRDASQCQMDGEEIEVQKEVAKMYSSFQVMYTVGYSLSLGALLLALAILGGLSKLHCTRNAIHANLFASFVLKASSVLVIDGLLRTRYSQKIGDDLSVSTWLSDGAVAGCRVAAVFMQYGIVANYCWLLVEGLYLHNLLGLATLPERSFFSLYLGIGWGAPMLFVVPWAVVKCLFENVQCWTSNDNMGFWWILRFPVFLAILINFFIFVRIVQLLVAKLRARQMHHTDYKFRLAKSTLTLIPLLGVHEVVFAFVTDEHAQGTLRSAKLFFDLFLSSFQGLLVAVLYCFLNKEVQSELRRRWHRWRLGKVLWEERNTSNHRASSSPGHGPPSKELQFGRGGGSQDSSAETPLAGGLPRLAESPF

[3] = target: Epidermal growth factor receptor (Homo sapiens, UniProt P00533); type: functional
Sequence of Epidermal growth factor receptor (P00533 whole entry): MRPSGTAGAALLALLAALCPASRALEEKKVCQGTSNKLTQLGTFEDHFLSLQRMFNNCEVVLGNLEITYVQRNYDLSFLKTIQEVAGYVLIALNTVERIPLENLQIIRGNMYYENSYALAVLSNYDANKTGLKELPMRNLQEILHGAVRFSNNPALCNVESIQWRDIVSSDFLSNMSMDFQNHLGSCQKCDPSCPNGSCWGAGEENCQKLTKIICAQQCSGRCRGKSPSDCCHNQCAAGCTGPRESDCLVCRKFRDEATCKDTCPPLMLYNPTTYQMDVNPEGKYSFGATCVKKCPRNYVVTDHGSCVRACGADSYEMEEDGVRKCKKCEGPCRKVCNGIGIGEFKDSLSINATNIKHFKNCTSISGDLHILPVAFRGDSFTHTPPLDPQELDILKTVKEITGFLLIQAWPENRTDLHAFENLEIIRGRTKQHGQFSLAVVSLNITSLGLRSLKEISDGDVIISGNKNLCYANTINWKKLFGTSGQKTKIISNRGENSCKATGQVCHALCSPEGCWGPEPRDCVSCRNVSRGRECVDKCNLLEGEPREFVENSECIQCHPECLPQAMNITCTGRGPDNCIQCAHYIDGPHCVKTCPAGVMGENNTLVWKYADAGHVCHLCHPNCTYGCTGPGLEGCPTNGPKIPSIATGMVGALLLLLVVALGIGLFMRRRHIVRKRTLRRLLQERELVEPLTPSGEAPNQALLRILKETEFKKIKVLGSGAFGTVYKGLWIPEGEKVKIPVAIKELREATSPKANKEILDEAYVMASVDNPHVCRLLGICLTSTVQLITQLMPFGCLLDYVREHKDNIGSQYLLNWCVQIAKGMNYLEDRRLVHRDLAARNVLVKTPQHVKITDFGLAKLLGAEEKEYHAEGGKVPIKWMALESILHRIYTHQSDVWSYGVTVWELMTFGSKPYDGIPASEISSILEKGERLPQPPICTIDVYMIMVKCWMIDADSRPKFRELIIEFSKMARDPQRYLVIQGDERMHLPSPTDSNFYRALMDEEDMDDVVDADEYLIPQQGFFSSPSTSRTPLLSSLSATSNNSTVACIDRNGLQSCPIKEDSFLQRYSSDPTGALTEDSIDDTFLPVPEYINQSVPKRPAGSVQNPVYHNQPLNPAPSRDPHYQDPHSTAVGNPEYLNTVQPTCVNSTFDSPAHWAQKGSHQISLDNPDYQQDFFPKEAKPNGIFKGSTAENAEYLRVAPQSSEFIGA

Estrogen receptor beta = Estrogen receptor beta (Homo sapiens, UniProt Q92731)
Sequence of Estrogen receptor beta (Q92731 whole entry): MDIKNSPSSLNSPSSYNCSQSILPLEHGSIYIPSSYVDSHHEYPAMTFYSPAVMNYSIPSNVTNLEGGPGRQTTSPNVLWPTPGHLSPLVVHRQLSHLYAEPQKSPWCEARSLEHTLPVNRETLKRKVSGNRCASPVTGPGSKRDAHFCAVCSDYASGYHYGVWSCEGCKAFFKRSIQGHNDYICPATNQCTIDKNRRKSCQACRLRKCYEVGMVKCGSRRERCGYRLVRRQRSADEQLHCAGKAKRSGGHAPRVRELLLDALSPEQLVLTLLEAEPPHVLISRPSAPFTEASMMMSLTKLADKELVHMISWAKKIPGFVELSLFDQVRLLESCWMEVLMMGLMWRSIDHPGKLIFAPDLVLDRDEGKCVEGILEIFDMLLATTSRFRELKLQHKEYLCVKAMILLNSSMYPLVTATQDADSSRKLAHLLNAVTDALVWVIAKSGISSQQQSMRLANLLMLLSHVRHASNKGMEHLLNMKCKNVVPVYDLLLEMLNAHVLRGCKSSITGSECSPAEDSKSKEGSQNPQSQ

[4] = target: T2, Corticotropin-releasing factor receptor 2 (Homo sapiens, UniProt Q13324)
T2 sequence (Q13324 whole entry): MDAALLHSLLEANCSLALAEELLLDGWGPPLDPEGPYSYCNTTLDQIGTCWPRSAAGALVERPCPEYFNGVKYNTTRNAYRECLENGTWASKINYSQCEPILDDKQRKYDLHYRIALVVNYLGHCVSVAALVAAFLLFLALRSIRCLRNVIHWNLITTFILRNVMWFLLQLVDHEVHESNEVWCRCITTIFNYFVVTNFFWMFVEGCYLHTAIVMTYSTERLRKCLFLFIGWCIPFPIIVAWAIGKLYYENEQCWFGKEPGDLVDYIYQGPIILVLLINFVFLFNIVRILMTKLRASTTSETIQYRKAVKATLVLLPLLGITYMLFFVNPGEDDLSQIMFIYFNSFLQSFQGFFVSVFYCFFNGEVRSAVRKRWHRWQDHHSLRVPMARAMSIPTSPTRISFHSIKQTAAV

[5] = target: T3, Corticotropin-releasing factor receptor 1 (Homo sapiens, UniProt P34998)
T3 sequence (P34998 whole entry): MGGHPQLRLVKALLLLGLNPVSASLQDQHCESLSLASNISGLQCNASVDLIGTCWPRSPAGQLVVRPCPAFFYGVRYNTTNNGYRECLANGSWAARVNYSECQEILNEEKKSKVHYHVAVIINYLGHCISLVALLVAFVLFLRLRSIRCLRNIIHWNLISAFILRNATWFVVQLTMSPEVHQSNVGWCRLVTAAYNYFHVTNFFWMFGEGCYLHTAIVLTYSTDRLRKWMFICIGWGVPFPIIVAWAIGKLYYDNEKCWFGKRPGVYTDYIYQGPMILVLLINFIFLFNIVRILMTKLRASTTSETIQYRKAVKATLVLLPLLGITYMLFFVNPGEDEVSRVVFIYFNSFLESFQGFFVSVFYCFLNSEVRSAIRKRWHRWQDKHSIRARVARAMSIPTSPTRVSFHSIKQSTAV

[6] = target: Gamma-aminobutyric acid receptor subunit alpha-1/alpha-2/beta-2/gamma-2 (Homo sapiens, UniProt P14867+P18507+P47869+P47870); type: functional, cell-based
Sequence of Gamma-aminobutyric acid receptor subunit alpha-1/alpha-2/beta-2/gamma-2 (P14867 whole entry): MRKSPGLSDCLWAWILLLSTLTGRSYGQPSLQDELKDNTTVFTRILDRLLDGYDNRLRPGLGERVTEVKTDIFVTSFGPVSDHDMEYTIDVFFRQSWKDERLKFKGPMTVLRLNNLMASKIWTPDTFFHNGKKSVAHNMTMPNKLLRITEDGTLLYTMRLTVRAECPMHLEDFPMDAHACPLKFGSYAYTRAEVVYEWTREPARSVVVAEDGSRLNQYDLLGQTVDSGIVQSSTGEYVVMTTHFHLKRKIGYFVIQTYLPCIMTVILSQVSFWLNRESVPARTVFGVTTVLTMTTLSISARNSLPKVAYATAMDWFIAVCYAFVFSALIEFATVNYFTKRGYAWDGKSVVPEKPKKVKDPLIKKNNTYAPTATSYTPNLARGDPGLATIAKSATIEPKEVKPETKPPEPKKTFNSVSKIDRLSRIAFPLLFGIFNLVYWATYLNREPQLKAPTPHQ
Sequence of Gamma-aminobutyric acid receptor subunit alpha-1/alpha-2/beta-2/gamma-2 (P47870 whole entry): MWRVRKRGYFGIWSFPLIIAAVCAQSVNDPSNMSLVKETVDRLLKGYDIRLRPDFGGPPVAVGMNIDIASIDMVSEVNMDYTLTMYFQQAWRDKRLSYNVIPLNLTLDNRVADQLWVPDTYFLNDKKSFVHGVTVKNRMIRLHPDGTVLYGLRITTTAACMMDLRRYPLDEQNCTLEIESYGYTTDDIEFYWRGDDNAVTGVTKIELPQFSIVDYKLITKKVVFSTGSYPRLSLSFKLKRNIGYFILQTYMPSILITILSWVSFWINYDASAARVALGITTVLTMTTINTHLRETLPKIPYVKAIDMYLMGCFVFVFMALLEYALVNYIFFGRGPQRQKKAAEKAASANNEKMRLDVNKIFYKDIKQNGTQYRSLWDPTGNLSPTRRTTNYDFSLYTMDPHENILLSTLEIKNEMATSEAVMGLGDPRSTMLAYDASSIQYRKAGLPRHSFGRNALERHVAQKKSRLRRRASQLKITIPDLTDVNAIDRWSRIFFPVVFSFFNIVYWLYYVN
Sequence of Gamma-aminobutyric acid receptor subunit alpha-1/alpha-2/beta-2/gamma-2 (P18507 whole entry): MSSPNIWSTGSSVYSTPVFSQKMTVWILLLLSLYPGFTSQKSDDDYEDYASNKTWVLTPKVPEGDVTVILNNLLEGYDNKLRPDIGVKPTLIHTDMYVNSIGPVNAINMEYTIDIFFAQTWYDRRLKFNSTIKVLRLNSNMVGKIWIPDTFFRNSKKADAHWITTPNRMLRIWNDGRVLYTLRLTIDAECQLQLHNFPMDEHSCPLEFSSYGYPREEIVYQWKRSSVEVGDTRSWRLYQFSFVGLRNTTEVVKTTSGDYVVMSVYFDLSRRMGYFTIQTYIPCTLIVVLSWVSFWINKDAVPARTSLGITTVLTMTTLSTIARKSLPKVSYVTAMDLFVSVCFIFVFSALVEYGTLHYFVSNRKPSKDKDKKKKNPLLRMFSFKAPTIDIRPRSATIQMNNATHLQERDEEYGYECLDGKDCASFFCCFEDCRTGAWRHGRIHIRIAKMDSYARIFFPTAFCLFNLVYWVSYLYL
Sequence of Gamma-aminobutyric acid receptor subunit alpha-1/alpha-2/beta-2/gamma-2 (P47869 whole entry): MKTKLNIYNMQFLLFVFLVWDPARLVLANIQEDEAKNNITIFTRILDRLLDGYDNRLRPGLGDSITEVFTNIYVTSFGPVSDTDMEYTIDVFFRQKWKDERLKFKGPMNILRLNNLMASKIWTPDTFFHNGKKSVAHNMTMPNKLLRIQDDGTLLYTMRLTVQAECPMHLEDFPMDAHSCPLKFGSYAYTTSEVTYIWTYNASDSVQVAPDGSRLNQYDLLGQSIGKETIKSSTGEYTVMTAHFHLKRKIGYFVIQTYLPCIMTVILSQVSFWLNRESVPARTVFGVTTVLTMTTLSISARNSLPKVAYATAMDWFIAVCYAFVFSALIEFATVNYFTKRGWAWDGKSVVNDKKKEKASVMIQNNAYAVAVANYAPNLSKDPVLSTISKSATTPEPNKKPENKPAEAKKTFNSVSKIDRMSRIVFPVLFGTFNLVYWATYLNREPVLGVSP

Androgen receptor = target: T4, Androgen receptor (Homo sapiens, UniProt P10275)
T4 sequence (P10275 whole entry): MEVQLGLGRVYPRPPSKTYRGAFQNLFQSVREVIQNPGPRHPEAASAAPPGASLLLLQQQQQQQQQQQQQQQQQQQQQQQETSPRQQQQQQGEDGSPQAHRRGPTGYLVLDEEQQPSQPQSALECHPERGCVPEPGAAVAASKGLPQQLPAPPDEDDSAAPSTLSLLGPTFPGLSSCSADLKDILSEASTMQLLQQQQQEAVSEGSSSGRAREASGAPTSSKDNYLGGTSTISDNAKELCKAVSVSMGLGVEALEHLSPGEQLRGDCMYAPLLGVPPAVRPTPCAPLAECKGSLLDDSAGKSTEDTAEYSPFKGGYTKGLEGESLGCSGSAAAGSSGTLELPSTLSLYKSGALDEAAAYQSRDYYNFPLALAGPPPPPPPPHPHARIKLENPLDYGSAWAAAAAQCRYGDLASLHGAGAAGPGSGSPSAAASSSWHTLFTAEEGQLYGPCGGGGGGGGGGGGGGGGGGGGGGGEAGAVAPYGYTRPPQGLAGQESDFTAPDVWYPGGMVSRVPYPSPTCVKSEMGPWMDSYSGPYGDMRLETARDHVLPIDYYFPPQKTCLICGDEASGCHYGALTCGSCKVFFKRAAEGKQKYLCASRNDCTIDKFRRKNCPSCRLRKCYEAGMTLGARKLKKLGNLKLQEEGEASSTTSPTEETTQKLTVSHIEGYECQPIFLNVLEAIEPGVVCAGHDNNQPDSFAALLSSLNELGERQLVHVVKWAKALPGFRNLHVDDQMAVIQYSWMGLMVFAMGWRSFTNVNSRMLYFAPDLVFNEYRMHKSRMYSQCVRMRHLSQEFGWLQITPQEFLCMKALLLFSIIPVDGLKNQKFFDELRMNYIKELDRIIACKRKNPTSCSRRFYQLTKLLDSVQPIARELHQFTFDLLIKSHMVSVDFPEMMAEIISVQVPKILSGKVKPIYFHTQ
Further: assay procedure not described here.

Row | Structure (SMILES) | AC50 [1] | AC50 [2] | AC50 (Glucagon receptor) | AC50 [3] | AC50 (Estrogen receptor beta) | AC50 [4] | AC50 [5] | AC50 [6] | AC50 (Androgen receptor)
1 | Cn1nnc2c(C(N)=O)ncn2c1=O [TEMOZOLOMIDE] | > 30 µM | > 30 µM | > 30 µM | > 30 µM | > 30 µM | > 30 µM | > 30 µM | > 30 µM | 
2 | Cc1c(C(=O)NN2CCCCC2)nn(-c2ccc(Cl)cc2Cl)c1-c1ccc(Cl)cc1 [RIMONABANT] | > 30 µM | > 30 µM | > 30 µM | > 30 µM | > 30 µM | > 30 µM | > 30 µM | > 30 µM | 
3 | CN(C)CCC=C1c2ccccc2C(C)(C)c2ccccc21 | > 30 µM | > 30 µM |  | > 30 µM |  |  |  | > 30 µM | 
4 | C[C@H]1CNCCc2ccc(Cl)cc21 [LORCASERIN] | > 30 µM | > 30 µM |  | > 30 µM |  |  |  | > 30 µM | 
5 | NCC(CC(=O)O)c1ccc(Cl)cc1 (stereo unspecified) [BACLOFEN] | > 30 µM | > 30 µM | > 30 µM | > 30 µM | > 30 µM | > 30 µM | > 30 µM | > 30 µM | 
6 | C[C@@H](O)[C@H]1C(=O)N2C(C(=O)O)=C(S[C@@H]3CN[C@H](C(=O)N(C)C)C3)[C@H](C)[C@H]12 [MEROPENEM] | > 300 µM | > 300 µM |  | > 300 µM |  |  |  | > 300 µM | 
7 | COc1ccc(CC(C)(C)NC[C@H](O)c2cc(O)cc3c2OCC(=O)N3)cc1 [OLODATEROL] | > 30 µM | > 30 µM |  | > 30 µM |  |  |  | > 30 µM | 
8 | c1cnc(N2CCN(Cc3ccc4c(c3)OCO4)CC2)nc1 [PIRIBEDIL] | > 30 µM | > 30 µM |  | > 30 µM |  |  |  | > 30 µM | 
9 | O=C(OCC(O)CO)c1ccccc1Nc1ccnc2cc(Cl)ccc12 (stereo unspecified) [GLAFENINE] | > 30 µM | > 30 µM |  | > 30 µM |  |  |  | 17 µM | > 30 µM
10 | CC(C)C[C@H]1C(=O)N2CCC[C@H]2[C@]2(O)O[C@](NC(=O)[C@@H]3C=C4c5cccc6[nH]c(Br)c(c56)C[C@H]4N(C)C3)(C(C)C)C(=O)N12 [BROMOCRIPTINE] | > 30 µM | > 30 µM | > 30 µM | > 30 µM |  | > 30 µM | > 30 µM | > 30 µM | 

From ChEMBL document CHEMBL5291721, “A preclinical secondary pharmacology resource illuminates target-adverse drug reaction associations of marketed drugs” (Nat Commun, 2023)
